Drawing on patent US10093630B2, “Pyrazole compounds and methods of making and using same” (ABIDE THERAPEUTICS, INC., priority 2014, dated 2018), this text covers inhibition and IC50 for twelve molecules.

In general, inhibition refers to the drop in the measured response relative to a control, in per cent. Usually IC50 stands for the point on the concentration scale where inhibition reaches its midpoint.

Assay in all cases: In vitro competitive activity-based protein profiling (gel-based, FP-Rh or HT-01 probe)
Holding throughout (type): biochemical

For one test, the target named is T1, ABHD6 (Mus musculus, UniProt Q8R2Y0).
T1 construct: Proteomes (mouse brain membrane fraction or cell lysates); from tissue; host or cells: mouse brain membrane fraction (or cell lysates, not specified)
T1 sequence (Q8R2Y0 1-336): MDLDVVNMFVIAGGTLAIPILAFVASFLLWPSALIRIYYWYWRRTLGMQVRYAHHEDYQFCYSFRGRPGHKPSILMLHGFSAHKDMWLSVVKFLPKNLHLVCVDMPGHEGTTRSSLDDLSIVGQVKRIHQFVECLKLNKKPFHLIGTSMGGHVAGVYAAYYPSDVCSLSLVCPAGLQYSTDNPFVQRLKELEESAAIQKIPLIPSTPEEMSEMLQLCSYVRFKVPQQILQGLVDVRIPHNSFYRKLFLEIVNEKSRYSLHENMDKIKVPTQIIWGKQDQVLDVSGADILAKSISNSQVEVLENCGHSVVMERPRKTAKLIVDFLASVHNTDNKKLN
As to conditions: for inhibition at 1 µM: 1 μM inhibitor, read-out: % Inhibition at 1 μM, C = ABHD6; for IC50: mouse brain membrane fraction or cell lysates, 30 min preincubation at 37° C., read-out: Mouse (IC50 value, nM) ABHD6; for inhibition at 10 µM: 10 μM inhibitor, read-out: % Inhibition at 10 μM, C = ABHD6. In short, it runs like this: (§1)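 Gel-based read-out: fluorescent band intensity after SDS-PAGE reflected remaining hydrolase activity. Inhibitors were preincubated 30 min at 37° C with 1.0 mg/mL mouse brain membrane or lysate proteome before a further 30 min at 37° C with FP-Rh or HT-01 probe.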

Another test addresses T2, FAAH (Mus musculus, UniProt O08914).
T2 construct: Proteomes (mouse brain membrane fraction or cell lysates); from tissue; host or cells: mouse brain membrane fraction (or cell lysates, not specified)
T2 sequence (O08914 1-579): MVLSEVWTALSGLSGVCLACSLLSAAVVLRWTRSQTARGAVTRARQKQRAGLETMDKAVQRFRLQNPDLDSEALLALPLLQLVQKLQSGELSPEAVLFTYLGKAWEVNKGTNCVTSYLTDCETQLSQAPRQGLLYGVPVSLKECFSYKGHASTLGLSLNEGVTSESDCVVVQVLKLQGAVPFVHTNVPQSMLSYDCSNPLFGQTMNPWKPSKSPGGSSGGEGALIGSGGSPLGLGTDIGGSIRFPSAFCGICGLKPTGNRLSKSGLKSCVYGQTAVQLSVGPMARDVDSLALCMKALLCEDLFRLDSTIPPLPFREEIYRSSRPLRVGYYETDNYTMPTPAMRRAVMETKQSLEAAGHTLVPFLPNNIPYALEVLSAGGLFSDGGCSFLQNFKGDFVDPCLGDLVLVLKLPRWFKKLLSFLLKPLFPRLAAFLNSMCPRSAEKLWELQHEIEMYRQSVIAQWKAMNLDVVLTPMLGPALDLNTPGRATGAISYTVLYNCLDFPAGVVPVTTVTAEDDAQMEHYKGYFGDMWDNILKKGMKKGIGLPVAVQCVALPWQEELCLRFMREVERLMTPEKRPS
As to conditions: for inhibition at 1 µM: 1 μM inhibitor, read-out: % Inhibition at 1 μM, B = FAAH; for IC50: mouse brain membrane fraction or cell lysates, 30 min preincubation at 37° C., read-out: Mouse (IC50 value, nM) FAAH; for inhibition at 10 µM: 10 μM inhibitor, read-out: % Inhibition at 10 μM, B = FAAH. In a few lines:
as §1

A further test deals with T3, PLA2G7 (Mus musculus, UniProt Q60963).
T3 construct: Proteomes (mouse brain membrane fraction or cell lysates); from tissue; host or cells: mouse brain membrane fraction (or cell lysates, not specified)
T3 sequence (Q60963 22-440): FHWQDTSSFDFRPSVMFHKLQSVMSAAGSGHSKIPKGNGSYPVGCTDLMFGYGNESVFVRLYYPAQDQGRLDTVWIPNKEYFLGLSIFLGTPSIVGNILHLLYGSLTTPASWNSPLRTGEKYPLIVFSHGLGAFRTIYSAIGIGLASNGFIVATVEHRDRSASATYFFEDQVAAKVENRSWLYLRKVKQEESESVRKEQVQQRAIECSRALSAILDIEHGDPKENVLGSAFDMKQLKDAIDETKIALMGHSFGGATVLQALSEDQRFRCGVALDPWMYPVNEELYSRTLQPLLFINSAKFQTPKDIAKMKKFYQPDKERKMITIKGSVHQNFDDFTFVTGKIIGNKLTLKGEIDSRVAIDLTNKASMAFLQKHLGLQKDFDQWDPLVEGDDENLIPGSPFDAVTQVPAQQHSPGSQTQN
As to conditions: for inhibition at 1 µM: 1 μM inhibitor, read-out: % Inhibition at 1 μM, D = PLA2G7; for IC50: mouse brain membrane fraction or cell lysates, 30 min preincubation at 37° C.; for inhibition at 10 µM: 10 μM inhibitor, read-out: % Inhibition at 10 μM, D = PLA2G7. In a few lines: as §1

A further test concerns the target T4, MAGL (Mus musculus, UniProt O35678).
T4 construct: Proteomes (mouse brain membrane fraction or cell lysates); from tissue; host or cells: mouse brain membrane fraction (or cell lysates, not specified)
T4 sequence (O35678 1-303): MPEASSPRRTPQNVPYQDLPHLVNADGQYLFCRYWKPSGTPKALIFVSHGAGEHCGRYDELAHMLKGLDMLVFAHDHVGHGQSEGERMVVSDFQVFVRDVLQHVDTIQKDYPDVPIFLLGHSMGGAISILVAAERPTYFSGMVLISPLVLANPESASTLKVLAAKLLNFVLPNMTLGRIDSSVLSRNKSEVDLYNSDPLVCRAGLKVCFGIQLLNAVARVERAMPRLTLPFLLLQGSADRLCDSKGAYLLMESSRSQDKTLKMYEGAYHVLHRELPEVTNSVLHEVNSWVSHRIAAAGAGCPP
As to conditions: for inhibition at 1 µM: 1 μM inhibitor; for IC50: mouse brain membrane fraction or cell lysates, 30 min preincubation at 37° C., read-out: Mouse (IC50 value, nM) MAGL; for inhibition at 10 µM: 10 μM inhibitor. In a few lines:
as §1

SMILES strings stand for the structures. Where two headings read alike, the source gives them in different places.

For the molecule `O=C(N1CCN(Cc2cccc(Oc3ccccc3)c2)CC1)n1cc(Cl)cn1` [Example 216, (4-Chloro-1H-pyrazol-1-yl)(4-(3-phenoxybenzyl)piperazin-1-yl)methanone], the inhibition at 1 µM on ABHD6 is greater than 75%; on FAAH, greater than 75%; on PLA2G7, less than 25%; at MAGL it was greater than 75%. The IC50 on ABHD6 is less than 100 nM; on FAAH it was less than 100 nM; on PLA2G7 it was greater than 1000 nM; on MAGL it was less than 100 nM.
As for `O=C(N1CCN(Cc2ccc3ccccc3c2)CC1)n1cc(I)cn1` [Example 14, (4-Iodo-1H-pyrazol-1-yl)(4-(naphthalen-2-ylmethyl)piperazin-1-yl)methanone], the inhibition at 1 µM at ABHD6, at FAAH, on PLA2G7 and at MAGL was greater than 75% throughout. In addition, the inhibition at 10 µM on ABHD6, at FAAH, at PLA2G7 and on MAGL was greater than 75% each time.
Take `COc1ccccc1CN1CCN(C(=O)n2cc(C(F)(F)F)cn2)CC1` [Example 278, (4-(2-Methoxybenzyl)piperazin-1-yl)(4-(trifluoromethyl)-1H-pyrazol-1-yl)methanone]: the inhibition at 1 µM on ABHD6 (gel-based competitive ABPP), at FAAH (gel-based competitive ABPP), on PLA2G7 (gel-based competitive ABPP) and on MAGL (gel-based competitive ABPP) was greater than 75% each time.
For the molecule `CC(C)(C)OC(=O)N1CCCN(C(=O)n2cc(C#N)cn2)CC1` [Example 27, tert-Butyl 4-(4-cyano-1H-pyrazole-1-carbonyl)-1,4-diazepane-1-carboxylate], the inhibition at 1 µM on ABHD6, at FAAH, at PLA2G7 and on MAGL was greater than 75% in each case. Besides, the inhibition at 10 µM on ABHD6, on FAAH, at PLA2G7 and at MAGL was greater than 75% in each case.
As for `CCN(Cc1cccc(Cl)c1)C(=O)n1cc(C#N)cn1` [Example 243, N-(3-chlorobenzyl)-4-cyano-N-ethyl-1H-pyrazole-1-carboxamide], the inhibition at 1 µM at ABHD6 was greater than 75%; at FAAH it was greater than 75%; at PLA2G7, less than 25%; at MAGL, greater than 75%. The IC50 was greater than 1000 nM on ABHD6, less than 100 nM at FAAH, greater than 1000 nM on PLA2G7 and 100 to 1000 nM on MAGL.
Regarding `O=C(c1ccccc1)N1CCCN(C(=O)n2cc(Cl)cn2)CC1` [Example 192, (4-Benzoyl-1,4-diazepan-1-yl)(4-chloro-1H-pyrazol-1-yl)methanone], the inhibition at 1 µM was 25 to 75% at ABHD6, less than 25% on FAAH, less than 25% on PLA2G7 and 25 to 75% on MAGL. Moreover, the inhibition at 10 µM at ABHD6, on FAAH, at PLA2G7 and on MAGL was greater than 75% in each case.
For `O=C(N1CCN(c2ccccc2)CC1)n1cc(C(F)(F)F)cn1` [Example 202, (4-Phenylpiperazin-1-yl)(4-(trifluoromethyl)-1H-pyrazol-1-yl)methanone], the inhibition at 1 µM on ABHD6, at FAAH, on PLA2G7 and on MAGL was greater than 75% in each case. For the same molecule, the inhibition at 10 µM at ABHD6, on FAAH, at PLA2G7 and at MAGL was greater than 75% throughout.
Consider `O=C(c1cnn(C(=O)N2CCN(Cc3ccncn3)CC2)c1)N1CCOCC1` [Example 54, (4-(Morpholine-4-carbonyl)-1H-pyrazol-1-yl)(4-(pyrimidin-4-ylmethyl)piperazin-1-yl)methanone], for which the inhibition at 1 µM on ABHD6 and on PLA2G7 was less than 25% each time. The inhibition at 10 µM on ABHD6 was 25 to 75%; on FAAH, less than 25%; at PLA2G7, greater than 75%; at MAGL, 25 to 75%.
For the molecule `Cc1ccc(N2CCN(C(=O)n3cc(C(F)(F)F)cn3)CC2)cc1` [Example 232, (4-p-Tolylpiperazin-1-yl)(4-(trifluoromethyl)-1H-pyrazol-1-yl)methanone], the inhibition at 1 µM at ABHD6, on FAAH, on PLA2G7 and on MAGL was greater than 75% each time. Besides, the inhibition at 10 µM on ABHD6, on FAAH, on PLA2G7 and on MAGL was greater than 75% in each case.
Take `COc1cc(-c2ccccc2)ccc1CN1CCN(C(=O)n2cc(C(=O)N3CCCC3)cn2)CC1` [Example 290, (4-((3-Methoxybiphenyl-4-yl)methyl)piperazin-1-yl)(4-(pyrrolidine-1-carbonyl)-1H-pyrazol-1-yl)methanone]: the inhibition at 1 µM on ABHD6 (gel-based competitive ABPP) was greater than 75%; at FAAH (gel-based competitive ABPP), greater than 75%; at PLA2G7 (gel-based competitive ABPP), less than 25%; on MAGL (gel-based competitive ABPP) it was greater than 75%. Moreover, the inhibition at 10 µM at ABHD6 (gel-based competitive ABPP), on FAAH (gel-based competitive ABPP), on PLA2G7 (gel-based competitive ABPP) and on MAGL (gel-based competitive ABPP) was greater than 75% in each case.
On to `N#Cc1cnn(C(=O)N2CCCN(Cc3ccc(OCc4ccccc4)cc3)CC2)c1` [Example 303, 1-(4-(4-(Benzyloxy)benzyl)-1,4-diazepane-1-carbonyl)-1H-pyrazole-4-carbonitrile], for which the inhibition at 1 µM is less than 25% on ABHD6 (gel-based competitive ABPP), greater than 75% at FAAH (gel-based competitive ABPP), less than 25% at PLA2G7 (gel-based competitive ABPP) and greater than 75% at MAGL (gel-based competitive ABPP).
Regarding `Cc1cnn(C(=O)Nc2ccc3ccccc3c2)c1` [Example 41, 4-Methyl-N-(naphthalen-2-yl)-1H-pyrazole-1-carboxamide], the inhibition at 1 µM on ABHD6, on FAAH, at PLA2G7 and on MAGL was less than 25% throughout. Besides, the inhibition at 10 µM at ABHD6 is less than 25%; on FAAH, less than 25%; at PLA2G7, less than 25%; on MAGL, greater than 75%.
